Data set [1] relates to blood brain barrier in vitro 3D model (co-cultured brain endothelial cells, pericytes and astrocytes). Nature of the data set: Impact on cell viability and BBB integrity in 3D BBB model. Type of data set: cell-based, human. The following applies: 3D BBB model, compound treatment. An excerpt:
(§1) Hydroxy UreaMethyl Acylfulvene having a negative chirality or LP-184 permeates the blood brain barrier in vitro 3D model, which closely recapitulates the human blood brain barrier. This model mimics transport properties of the BBB due to the formation of tight junctions, higher expression of specific carriers, and/or great cell viability. This 3D in vitro model of the BBB created by co-culturing brain endothelial cells, with pericytes and astrocytes layered in an insert, improves endothelial cell polarization, and enhances the formation of tight junctions, provides better endothelial cell-to-cell contact that is important for barrier development, and prevents the dilution of secreted neurotrophic factors. These conditions collectively lead to the development of an in vitro model that mimics the BBB.
(§2) This assay leverages the novel 3D BBB model that allows studying both compound transport across the barrier as well as the effect of compounds on the structure and function of the BBB. […] LP-184 was as effective as the standard of care drug TMZ in penetrating the blood brain barrier. Apparent BBB permeability measured for TMZ was 1.72*10^−4 cm/s at 30 minutes and for LP-184 was 1.53*10^−4 cm/s at 30 minutes (FIG. 1).

The test system is the same in data set [2]. Nature of the data set: Apparent BBB permeability in 3D in vitro blood brain barrier model. In kind it is in vitro ADME, human. The following applies: 3D BBB model, at 30 minutes.
Excerpt: as §1, §2

A short description of data set [3]: Pharmacokinetics of LP-184 in plasma, normal brain and brain tumor. Type of data set: in vivo, mice.
The test system of data set [4] is 3D models of patient-derived xenograft (PDX) derived brain metastases of primary lung and breast cancers. Nature of the data set: Potency in 3D models of PDX-derived brain metastases. In kind it is cell-based. As to conditions: 72-hour treatment period, various brain metastasis models, range over models and testing conditions.
Data set [5] can be described thus: Apparent BBB permeability in 3D in vitro blood brain barrier model. As to conditions: human, 3D BBB model. In kind it is in vitro ADME, human.
Excerpt: as §1, §2

Where [6] appears, read: Contralateral Normal Brain, 4 mg/kg IV.
Setting [7] is: Peritumoral Normal Brain, 4 mg/kg IV.

Consider `CC1=C(CN(O)C(N)=O)C2=C(C)C3(CC3)[C@@](C)(O)C(=O)C2=C1` [LP-184, Hydroxy UreaMethyl Acylfulvene], for which the BBB integrity result in data set [1] is on record as “BBB integrity was not compromised”. Besides, the “Impact on cell viability” value in data set [1] was “insignificant impact on cell viability”. Moreover, the “Apparent BBB permeability” value in data set [2] was 1.53*10^−4 cm/s. The “Brain Tissue/Plasma Ratio” value in data set [3] (Brain Tumor, 4 mg/kg IV) is on record as 0.200; in data set [3] (setting [6]), 0.077; in data set [3] (setting [7]) it was 0.103. Moreover, the Half-Life in data set [3] (Brain Tumor, 4 mg/kg IV) came to 16.9 min; in data set [3] (setting [6]), 26.6 min; in data set [3] (setting [7]), 23 min; in data set [3] (Plasma, 4 mg/kg IV) it was 14.2 min. For the same compound, the time to peak (Tmax) came out at 5 min in data set [3] (Brain Tumor, 4 mg/kg IV); 15 min in data set [3] (setting [6]); 15 min in data set [3] (setting [7]); 5 min in data set [3] (Plasma, 4 mg/kg IV). Besides, the AUC0-t in data set [3] (Contralateral Normal Brain, 4 mg/kg IV, Mean ± SEM) worked out at 123 ± 15.9 ng·h/g; in data set [3] (Peritumoral Normal Brain, 4 mg/kg IV, Mean ± SEM), 165 ± 11.6 ng·h/g; in data set [3] (Plasma, 4 mg/kg IV, Mean ± SEM) it was 1592 ± 48.7 ng·h/mL. The Cmax in data set [3] (Plasma, 4 mg/kg IV, Mean ± SEM) was 3438 ± 125^ ng/ml. Also, the “brain tumor exposure relative to plasma” value in data set [3] (based on AUC) is recorded as approximately 20%. Besides, the “brain tumor exposure compared to normal brain” value in data set [3] (higher in brain tumor) was approximately 2 fold. Moreover, the values for the clearance in data set [3] (mice with tumors) and in data set [3] (non-tumored mice) were 39.82 mL/min/kg and 88.07 mL/min/kg, respectively. This compound returned an IC50 in data set [4] of 88 to 4280 nM.
Consider `Cn1nnc2c(C(N)=O)ncn2c1=O` [TMZ, Temozolomide, reference compound], for which, in data set [5], the Papp at 30 min turned out to be 172 ×10⁻⁶ cm/s.

Broadly, the Tmax is the time at which the peak concentration occurs. Broadly, the clearance is the volume of plasma or blood freed of the substance per unit of time. Low values mean inefficient removal, high ones efficient removal. Broadly, the IC50 is the concentration at which inhibition is half-maximal. Read a high IC50 as weaker potency in that assay. Usually Papp stands for a coefficient for how fast a substance crosses the barrier.

The record behind these values is US20240325328A1, “TREATMENT OF BRAIN […] CNS […] ILLUDINS OR HYDROXYLUREAMETHYL ACYLFULVENE” (Lantern Pharma Inc., priority 2021, published 2024).
